Measurements from the METLIN SMRT retention time set (Domingo-Almenara et al. 2019).

Assay: gradient 5% acetonitrile 3 min, to 50% in 2 min, to 85% in 15 min, held 3 min, 100 µL/min
Conditions: column: Zorbax Extend-C18 2.1 x 50 mm; eluents: water / acetonitrile, 0.1% formic acid
Method in brief: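 Mixtures of ~100 pure standards were chromatographed on a Zorbax Extend-C18 column (2.1 × 50 mm, 1.8 μm) at 100 μL/min using water and acetonitrile, each with 0.1% formic acid. Detection used a quadrupole time-of-flight mass spectrometer in positive and negative ionization mode, and data collection spanned 3 months. Retention time was obtained from adduct peaks picked computationally and each checked manually.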

| SMILES | RP-LC retention time |
| --- | --- |
| CCCN(C)c1nccnc1OC1CCN(Cc2cccnc2)C1 (stereo not given) | 594 s |
| CCc1cc(-c2csc(S(=O)(=O)Nc3ccc(C)cc3Br)c2)on1 | 1050 s |
| O=C(Cn1cccc1-c1nnc(-c2ccccc2)o1)NCc1ccc2c(c1)OCO2 | 860 s |
| O=C(Nc1nc(-c2ccc(Cl)c(Cl)c2)cs1)c1ccc(F)c(F)c1 | 1260 s |
| Cc1ccsc1C(=O)Nc1cccn2nc(C(C)C)nc12 | 986 s |
| O=C(c1ccc(Cl)cc1)N1CCCC(c2nnc(-c3ccccc3)o2)C1 (stereo not given) | 874 s |
| CCCn1cc(C(=O)NCCCN(C)C)c(S(=O)(=O)N2CCN(c3cccc(Cl)c3)CC2)n1 | 758 s |
| CCn1cc(C)c(C(=O)O)c1CC(=O)N1CCc2ccccc2C1 | 780 s |
| CN1CCCc2cc(C(=O)NCc3ccccc3Cl)sc21 | 964 s |
| COc1ccc(N2CC(c3noc(-c4ccc(OC)c(F)c4)n3)CC2=O)cc1 (stereo not given) | 856 s |
| Cc1cc(NC(=O)C2CCN(C(=O)c3ccco3)CC2)no1 | 630 s |
| COc1cc(Nc2ncc(F)c(Nc3ccc4c(n3)N(COP(=O)(O)O)C(=O)C(C)(C)O4)n2)cc(OC)c1OC | 653 s |
| CC(C)N1C(=O)C(C)(C(=O)Nc2cccc(F)c2)Oc2cccnc21 (stereo not given) | 1020 s |
| CC(C)c1ccc(Nc2c(-c3ccc(N4CCOCC4)cc3)nc3ncccn23)cc1 | 806 s |
| CCN(Cc1ccccc1)c1ccc(-c2noc(CN3CCOCC3)n2)cn1 | 826 s |
| CCc1ccc(S(=O)(=O)NCc2c(-c3ccccc3)nc3sc(CC)nn23)cc1 | 1020 s |
| Cc1oc(-c2[nH]ncc2C(=O)N2CCCC2)cc1S(=O)(=O)NCCCOC(C)C | 655 s |
| CC(C(=O)N1CCN(Cc2ccccc2)CC1)N1C(=O)CCCc2ccccc21 (stereo not given) | 644 s |
| CC(C)Cc1csc(-c2csc(S(=O)(=O)NCc3ccc(F)cc3F)c2)n1 | 1160 s |
| COc1cccc(-c2ccc(NC(=O)C3=C(C(=O)O)CCC3)c(F)c2)c1 | 1080 s |
| CNC(=O)C1CCCN(c2nc3ncn(CC(=O)Nc4cccc(C(F)(F)F)c4)c(=O)c3s2)C1 (stereo not given) | 704 s |
| CC(C)(C)c1csc(-c2csc(S(=O)(=O)N3CCCCCC3)c2)n1 | 1340 s |

| SMILES | RP-LC retention time |
| --- | --- |
| Cc1nn(CC(=O)NC2CCCC2)c(=O)c2c(-n3cccc3)n(-c3cccc(F)c3)nc12 | 964 s |
| CC(C)NS(=O)(=O)c1ccc(Cl)c(-c2nnc(-c3ccccc3)o2)c1 | 977 s |
| CC1CCN(C(=O)C2CC(=O)N(CCc3c[nH]c4ccc(Cl)cc34)C2)CC1 (stereo not given) | 855 s |
| COCc1noc([C@@H]2CN(C(=O)C3CC=CCC3)C[C@H]2C(N)=O)n1 (stereo not given in full) | 610 s |
| Cc1oc2ncnc(N3CCCC(C(=O)NCc4ccccc4Cl)C3)c2c1C (stereo not given) | 892 s |
| Cc1ccc(/C=C2\CCOC2=O)cc1 | 916 s |
| CSc1cccc(NC(=O)C2CCCN(c3ncnc4c3nc3n4CCCCC3)C2)c1 (stereo not given) | 866 s |
| COc1ccc(NC(=O)N2CCN(CCn3c(C(F)(F)F)nc4cccnc43)CC2)cc1OC | 611 s |
| CC(=O)N1CCc2cc(N3CC(C(=O)Nc4cccc(Br)c4)CC3=O)ccc21 (stereo not given) | 780 s |
| CC(CCNC(=O)c1ccc2ccnc(N3CCN(c4ccc(F)cc4)CC3)c2c1)N1CCCC1 (stereo not given) | 597 s |
| COc1ccc(-c2ncccc2CNS(=O)(=O)c2ccc(C#N)cc2)cc1 | 673 s |
| COc1ccc(N2C=C(C(=O)N3CCOCC3)S(=O)(=O)c3ccc(F)cc32)cc1OC | 729 s |
| Cc1ccc(-n2nc(C)c(S(=O)(=O)N3CCC(C(=O)NCC4CCCO4)CC3)c2C)cc1 (stereo not given) | 807 s |
| COc1ccc(S(=O)(=O)NCc2c(-c3ccccc3)nc3sc(C)nn23)cc1 | 832 s |
| Cn1nc(-c2nc(-c3ccccc3)no2)c2c1CCN(C(=O)Nc1cccc(Cl)c1)C2 | 1050 s |
| Cc1cc(C)nc(Nc2nc(-c3ccccc3)c(CC(=O)O)s2)n1 | 710 s |
| Cc1nc(C)c(C(=O)N2CC(Oc3ccc(-c4nc(-c5ccccc5)no4)cc3)C2)s1 | 1130 s |
| CCn1cc(CCNC(=O)c2cccnc2SC)c2cccnc21 | 647 s |
| O=C(Nc1ccccc1)N1CCN(c2nc(-c3ccccc3)ns2)CC1 | 1020 s |
| COc1ccc(-c2nc(N(CC(C)C)CC(C)C)c3ccccc3n2)cc1 | 1020 s |
| CCCN1CCCCc2cc(C(=O)NCC(C)C)sc21 | 1100 s |
| CCc1ccc(C2=C(C)C(N3CCCN(C(=O)c4ccccc4)CC3)=NS2(=O)=O)cc1 | 896 s |

| SMILES | RP-LC retention time |
| --- | --- |
| Cc1cccn2cc(-c3cccc(NS(=O)(=O)c4ccc(Cl)cc4)c3)nc12 | 686 s |
| CCN1C(=O)C2(CCN(S(=O)(=O)c3ccc(C)c(C)c3)CC2)c2ccccc21 | 1130 s |
| CC(=O)N1C[C@@H]2CCCN3CCC[C@@H]([C@H]23)[C@H]1CCCC(=O)N(C)CCc1c(C)nn(C)c1C | 556 s |
| CCOc1ccc(S(=O)(=O)N2CCC(c3noc(-c4ccc(C)cc4)n3)CC2)cc1 | 1240 s |
| Cc1ccc(N2CC(c3nc(-c4ccc5c(c4)oc(=O)n5C(C)C)no3)CC2=O)cc1 (stereo not given) | 990 s |
| CS(=O)(=O)N1CCCc2cc(C(=O)NCc3ccc4c(c3)OCO4)ccc21 | 779 s |
| Cc1cccc(-c2noc(Cn3ncn4nc(-c5cccs5)cc4c3=O)n2)c1 | 1100 s |
| Cc1ccc(C)c(N2CCN(C(=O)Cn3nc(C(=O)N4CCCC4)c4ccccc43)CC2)c1 | 1040 s |
| COC(=O)C1=CN(c2ccc(OC)c(OC)c2)c2ccc(F)cc2S1(=O)=O | 788 s |
| Cc1c(-c2nsc(Nc3ccccc3)n2)nnn1-c1cccc(Cl)c1 | 1070 s |
| O=C(NC1CCCCCC1)C1CCCN(c2ncc(-c3cccc(F)c3)cn2)C1 (stereo not given) | 1160 s |
| CCn1ccc2c(cc(C(=O)Nc3cc(Cl)c(OC)cc3OC)n2C)c1=O | 810 s |
| COc1ccc(OCc2nc(CCN(C)C(=O)c3cc(OC)cc(OC)c3)no2)cc1 | 810 s |
| Cc1ncc2c(SCC(=O)NCc3ccc(F)cc3F)ncnc2n1 | 579 s |
| Cc1ccc2[nH]c(=O)c(CCC(=O)NCc3ccccn3)cc2c1 | 596 s |
| O=C(c1ccoc1)N1CCC(N2CC(F)(F)C[C@H]2CO)CC1 | 539 s |
| CCOC(=O)c1cnn(-c2ccc(C(=O)Nc3ccc(Br)cc3)cn2)c1N | 1020 s |
| CCOc1cccc2c1OC1(C)CC2NC(=O)N1c1cccc(C(=O)NCc2ccccn2)c1 (stereo not given) | 607 s |
| CCCNC(=O)C1CCCN(c2nc3ncn(CC(=O)Nc4cc(C)ccc4C)c(=O)c3s2)C1 (stereo not given) | 703 s |
| O=C(NC1CCCC1)N1CCC[C@H]1c1nc(-c2ccccc2)n[nH]1 | 697 s |
| O=C(NCc1ccc(Cl)cc1)C1CCN(S(=O)(=O)c2cc(C(=O)N3CCCC3)cs2)CC1 | 916 s |
